# ChEMBL document CHEMBL4831514, “Novel betulin dicarboxylic acid ester derivatives as potent antiviral agents: Design, synthesis, biological evaluation, structure-activity relationship and in-silico study” (Eur J Med Chem, 2021)
# Activity calls are given as the source filed them. The calls are words filed in the database; no cut-off is given here.
# System: Vesicular stomatitis virus
# Assay: Antiviral activity against Vesicular stomatitis virus Indiana infected in A549 cells assessed as inhibition of viral adsorption at early stage of replication treated for 1 hr during viral infection followed by replacement with fresh medium and measured after 48 hrs by MTT assay
# Assay type: functional, organism-based
row,Compound,Activity
1,C=C(C)[C@@H]1CC[C@]2(COC(=O)/C=C(\C)C(=O)N3CCCCC3)CC[C@]3(C)[C@H](CC[C@@H]4[C@@]5(C)CC[C@H](O)C(C)(C)[C@@H]5CC[C@]43C)[C@@H]12,inactive
2,C=C(C)[C@@H]1CC[C@]2(COC(=O)CCC(=O)N3CCOCC3)CC[C@]3(C)[C@H](CC[C@@H]4[C@@]5(C)CC[C@H](O)C(C)(C)[C@@H]5CC[C@]43C)[C@@H]12,inactive
3,C=C(C)[C@@H]1CC[C@]2(COC(=O)/C=C/C(=O)O)CC[C@]3(C)[C@H](CC[C@@H]4[C@@]5(C)CC[C@H](O)C(C)(C)[C@@H]5CC[C@]43C)[C@@H]12,inactive
4,C=C(C)[C@@H]1CC[C@]2(COC(=O)/C=C(\C)C(=O)N3CCSCC3)CC[C@]3(C)[C@H](CC[C@@H]4[C@@]5(C)CC[C@H](O)C(C)(C)[C@@H]5CC[C@]43C)[C@@H]12,inactive
5,C=C(C)[C@@H]1CC[C@]2(CO)CC[C@]3(C)[C@H](CC[C@@H]4[C@@]5(C)CC[C@H](O)C(C)(C)[C@@H]5CC[C@]43C)[C@@H]12 [BETULIN],inactive
6,C=C(C)[C@@H]1CC[C@]2(COC(=O)c3cccc(C(=O)O)c3)CC[C@]3(C)[C@H](CC[C@@H]4[C@@]5(C)CC[C@H](O)C(C)(C)[C@@H]5CC[C@]43C)[C@@H]12,inactive
7,C=C(C)[C@@H]1CC[C@]2(COC(=O)CSCC(=O)O)CC[C@]3(C)[C@H](CC[C@@H]4[C@@]5(C)CC[C@H](O)C(C)(C)[C@@H]5CC[C@]43C)[C@@H]12,inactive
8,C=C(C)[C@@H]1CC[C@]2(COC(=O)CCCC(=O)N3CCOCC3)CC[C@]3(C)[C@H](CC[C@@H]4[C@@]5(C)CC[C@H](O)C(C)(C)[C@@H]5CC[C@]43C)[C@@H]12,inactive
9,C#CCNC(=O)CCCC(=O)OC[C@]12CC[C@@H](C(=C)C)[C@@H]1[C@H]1CC[C@@H]3[C@@]4(C)CC[C@H](O)C(C)(C)[C@@H]4CC[C@@]3(C)[C@]1(C)CC2,inactive
10,C#CC1(NC(=O)c2cccc(C(=O)OC[C@]34CC[C@@H](C(=C)C)[C@@H]3[C@H]3CC[C@@H]5[C@@]6(C)CC[C@H](O)C(C)(C)[C@@H]6CC[C@@]5(C)[C@]3(C)CC4)c2)CCCCC1,inactive
11,C=C(C)[C@@H]1CC[C@]2(COC(=O)CCCCCCCCCC(=O)N3CCCCC3)CC[C@]3(C)[C@H](CC[C@@H]4[C@@]5(C)CC[C@H](O)C(C)(C)[C@@H]5CC[C@]43C)[C@@H]12,inactive
12,C=C(C)[C@@H]1CC[C@]2(COC(=O)c3cccc(C(=O)N4CCCCC4)c3)CC[C@]3(C)[C@H](CC[C@@H]4[C@@]5(C)CC[C@H](O)C(C)(C)[C@@H]5CC[C@]43C)[C@@H]12,inactive
13,"C=C(C)[C@@H]1CCC2(COC(=O)CCCCCCCCCC(=O)N3CCSCC3)CC[C@]3(C)[C@H](CC[C@@H]4[C@@]5(C)CC[C@H](O)C(C)(C)[C@@H]5CC[C@]43C)[C@@H]12 (single isomer, unassigned)",inactive
14,C=C(C)[C@@H]1CC[C@]2(COC(=O)CCCC(=O)N3CCSCC3)CC[C@]3(C)[C@H](CC[C@@H]4[C@@]5(C)CC[C@H](O)C(C)(C)[C@@H]5CC[C@]43C)[C@@H]12,inactive
15,C=C(C)[C@@H]1CC[C@]2(COC(=O)/C=C(\C)C(=O)N3CCOCC3)CC[C@]3(C)[C@H](CC[C@@H]4[C@@]5(C)CC[C@H](O)C(C)(C)[C@@H]5CC[C@]43C)[C@@H]12,inactive
16,C#CC1(NC(=O)CCC(=O)OC[C@]23CC[C@@H](C(=C)C)[C@@H]2[C@H]2CC[C@@H]4[C@@]5(C)CC[C@H](O)C(C)(C)[C@@H]5CC[C@@]4(C)[C@]2(C)CC3)CCCCC1,inactive
17,Nc1nc2c(ncn2COCCO)c(=O)[nH]1 [ACYCLOVIR],inactive
18,C#CCNC(=O)CCCCCCCCCC(=O)OC[C@]12CC[C@@H](C(=C)C)[C@@H]1[C@H]1CC[C@@H]3[C@@]4(C)CC[C@H](O)C(C)(C)[C@@H]4CC[C@@]3(C)[C@]1(C)CC2,inactive
19,"C=C(C)[C@@H]1CC[C@]2(COC(=O)CCC(=O)O)CC[C@]3(C)[C@H](CC[C@@H]4[C@@]5(C)CCC(O)C(C)(C)[C@@H]5CC[C@]43C)[C@@H]12 (single isomer, unassigned)",inactive
20,C=C(C)[C@@H]1CC[C@]2(COC(=O)c3cccc(C(=O)N4CCOCC4)c3)CC[C@]3(C)[C@H](CC[C@@H]4[C@@]5(C)CC[C@H](O)C(C)(C)[C@@H]5CC[C@]43C)[C@@H]12,inactive
21,"C#CC1(NC(=O)CCCCCCCCCC(=O)OC[C@]23CC[C@@H](C(=C)C)[C@@H]2[C@H]2CCC4[C@@]5(C)CC[C@H](O)C(C)(C)[C@@H]5CC[C@@]4(C)[C@]2(C)CC3)CCCCC1 (single isomer, unassigned)",inactive

row,Compound,Activity
1,C#CCNC(=O)c1ccccc1C(=O)OC[C@]12CC[C@@H](C(=C)C)[C@@H]1[C@H]1CC[C@@H]3[C@@]4(C)CC[C@H](O)C(C)(C)[C@@H]4CC[C@@]3(C)[C@]1(C)CC2,inactive
2,C#CC1(NC(=O)c2ccccc2C(=O)OC[C@]23CC[C@@H](C(=C)C)[C@@H]2[C@H]2CC[C@@H]4[C@@]5(C)CC[C@H](O)C(C)(C)[C@@H]5CC[C@@]4(C)[C@]2(C)CC3)CCCCC1,inactive
3,"C=C(C)[C@@H]1CC[C@]2(COC(=O)CCC(=O)N3CCCCC3)CC[C@]3(C)[C@H](CC[C@@H]4[C@@]5(C)CCC(O)C(C)(C)[C@@H]5CC[C@]43C)[C@@H]12 (single isomer, unassigned)",inactive
4,C=C(C)[C@@H]1CC[C@]2(COC(=O)CCCCCCCCCC(=O)N3CCOCC3)CC[C@]3(C)[C@H](CC[C@@H]4[C@@]5(C)CC[C@H](O)C(C)(C)[C@@H]5CC[C@]43C)[C@@H]12,inactive
5,"C=C(C)[C@@H]1CC[C@]2(COC(=O)c3ccccc3C(=O)N3CCCCC3)CC[C@]3(C)[C@H](CC[C@H]4C3(C)CC[C@H]3C(C)(C)[C@@H](O)CC[C@@]34C)[C@@H]12 (single isomer, unassigned)",inactive
6,C=C(C)[C@@H]1CC[C@]2(COC(=O)/C=C(\C)C(=O)O)CC[C@]3(C)[C@H](CC[C@@H]4[C@@]5(C)CC[C@H](O)C(C)(C)[C@@H]5CC[C@]43C)[C@@H]12,inactive
7,"C=C(C)[C@@H]1CC[C@]2(COC(=O)c3cccc(C(=O)N4CCSCC4)c3)CC[C@]3(C)[C@H](CC[C@@H]4[C@@]5(C)CC[C@H](O)C(C)(C)[C@@H]5CC[C@]43C)C12 (single isomer, unassigned)",inactive
8,C=C(C)[C@@H]1CC[C@]2(COC(=O)CCCC(=O)N3CCCCC3)CC[C@]3(C)[C@H](CC[C@@H]4[C@@]5(C)CC[C@H](O)C(C)(C)[C@@H]5CC[C@]43C)[C@@H]12,inactive
9,"C#CC1(NC(=O)CCCC(=O)OC[C@]23CCC(C(=C)C)[C@@H]2[C@H]2CC[C@@H]4[C@@]5(C)CC[C@H](O)C(C)(C)[C@@H]5CC[C@@]4(C)[C@]2(C)CC3)CCCCC1 (single isomer, unassigned)",inactive
10,C#CC1(NC(=O)/C(C)=C/C(=O)OC[C@]23CC[C@@H](C(=C)C)[C@@H]2[C@H]2CC[C@@H]4[C@@]5(C)CC[C@H](O)C(C)(C)[C@@H]5CC[C@@]4(C)[C@]2(C)CC3)CCCCC1,inactive
11,"C#CCNC(=O)c1cccc(C(=O)OC[C@]23CC[C@@H](C(=C)C)[C@@H]2[C@H]2CC[C@@H]4C5(C)CC[C@H](O)C(C)(C)[C@@H]5CC[C@@]4(C)[C@]2(C)CC3)c1 (single isomer, unassigned)",inactive
12,Nc1ccn(C[C@@H](CO)OCP(=O)(O)O)c(=O)n1.O.O [CIDOFOVIR],inactive
13,NC(=O)c1ncn([C@@H]2O[C@H](CO)[C@@H](O)[C@H]2O)n1 [RIBAVIRIN],inactive
14,C=C(C)[C@@H]1CC[C@]2(COC(=O)CCCCCCCCCC(=O)O)CC[C@]3(C)[C@H](CC[C@@H]4[C@@]5(C)CC[C@H](O)C(C)(C)[C@@H]5CC[C@]43C)[C@@H]12,inactive
15,C=C(C)[C@@H]1CC[C@]2(COC(=O)c3ccccc3C(=O)N3CCOCC3)CC[C@]3(C)[C@H](CC[C@@H]4[C@@]5(C)CC[C@H](O)C(C)(C)[C@@H]5CC[C@]43C)[C@@H]12,inactive
16,C=C(C)[C@@H]1CC[C@]2(COC(=O)CCCC(=O)O)CC[C@]3(C)[C@H](CC[C@@H]4[C@@]5(C)CC[C@H](O)C(C)(C)[C@@H]5CC[C@]43C)[C@@H]12,inactive
17,"C#CCNC(=O)CCC(=O)OC[C@]12CC[C@@H](C(=C)C)C1[C@H]1CC[C@@H]3[C@@]4(C)CC[C@H](O)C(C)(C)[C@@H]4CC[C@@]3(C)[C@]1(C)CC2 (single isomer, unassigned)",inactive
18,C=C(C)[C@@H]1CC[C@]2(COC(=O)CCC(=O)N3CCSCC3)CC[C@]3(C)[C@H](CC[C@@H]4[C@@]5(C)CC[C@H](O)C(C)(C)[C@@H]5CC[C@]43C)[C@@H]12,inactive
19,C=C(C)[C@@H]1CC[C@]2(COC(=O)c3ccccc3C(=O)N3CCSCC3)CC[C@]3(C)[C@H](CC[C@@H]4[C@@]5(C)CC[C@H](O)C(C)(C)[C@@H]5CC[C@]43C)[C@@H]12,inactive
20,C=C(C)[C@@H]1CC[C@]2(COC(=O)c3ccccc3C(=O)O)CC[C@]3(C)[C@H](CC[C@@H]4[C@@]5(C)CC[C@H](O)C(C)(C)[C@@H]5CC[C@]43C)[C@@H]12,inactive
21,C#CCNC(=O)/C(C)=C/C(=O)OC[C@]12CC[C@@H](C(=C)C)[C@@H]1[C@H]1CC[C@@H]3[C@@]4(C)CC[C@H](O)C(C)(C)[C@@H]4CC[C@@]3(C)[C@]1(C)CC2,inactive
